Test results: US20180037568A1, “MODULATORS OF METHYL MODIFYING ENZYMES, COMPOSITIONS AND USES THEREOF” (Constellation Pharmaceuticals, Inc., priority 2015, published 2018)
Where two headings read alike, the source gives them in different places.

What was measured:
PRC2 containing wt EZH2 = target: T1, PRC2 containing wt EZH2 (Homo sapiens, UniProt Q15910); test: EZH2 pep BSA Brij 4.0 LowE (IC50): 3H-SAM incorporation into biotinylated H3 peptide; type: biochemical
T1 construct: made in house
Description: EZH2 Pep BSA Brij 4.0 LowE (IC50):
Compound potencies were assessed through incorporation of ^3H-SAM into a biotinylated H3 peptide. Specifically, PRC2 containing wt EZH2 (20 pM), (pentameric complexes prepared in-house) was pre-incubated with ^3H-SAM (0.9 μM), 2 μM H3K27me3 activating peptide (H2N-RKQLATKAAR(Kme3)SAPATGGVKKP-amide) and compounds (as 10 point duplicate dose response titrations in DMSO, final assay 0.8% DMSO (v/v)) for 120 min in 50 mM Tris (pH 8.5), 1 mM DTT, 0.07 mM Brij-35, 0.1% BSA, and 0.8% DMSO in a total volume of 12.5 μl. Reaction was initiated with biotinylated H3 substrate peptide (H2N-RKQLATKAAR(Kme1)SAPATGGVKKP-NTPEGBiot) as a 2 μM stock in 12.5 μl of buffer and allowed to react at room temperature for 5 h. Quenching was accomplished by addition of 20 μl of STOP solution (50 mM Tris (pH 8.5), 200 mM EDTA, 2 mM SAH). 35 μl of the quenched solution was transferred to Streptavidin Flashplates, incubated overnight, washed, and read in a TopCount Reader (Perkin Elmer). IC50s were calculated relative to fully active and no enzyme control wells using non-linear least square four parameter fits.

H3K27me3 mark = test: H3K27me3 Alpha Hela Assay (AlphaLISA); type: cell-based; conditions: Hela cells, read-out: EZH2 Cell H3K27me3 Alpha HeLa (EC50 K27me3)
Description: EC50 Measurements for Inhibitors in HeLa Cell Assays
H3K27me3 Alpha Hela Assay (AlphaLISA). Ten different doses of each test compound (in a series of 3-fold dilutions) were plated in duplicate 384-well tissue culture treated plates (Catalog #781080; Greiner Bio One; Monroe, N.C.). Hela cells grown in culture were trypsinized and counted using a Countess® cell counter (Catalog # C10281; Life Technologies, Grand Island, N.Y.). Cell were diluted to 67,000 cells per mL in 10% DMEM (Catalog #10569-010 Life Technologies, Grand Island, N.Y.) and 15 μL (1,000 cells) were plated into each well using the Biotek MicroFlo™ Select Dispenser (BioTek Instruments, Inc. Vermont, USA),) of the 384-well plate. Plates were incubated at 37° C./5% CO2 for 72 hrs. One of the duplicate plates was processed for HeLa assay and the other for viability.
To the plate processed for AlphaLISA was added 5 μL per well Cell-Histone Lysis buffer (1×) (Catalog # AL009F1 Perkin Elmer; Waltham, Mass.) and the plate was incubated at RT for 30 minutes on a plate shaker with low speed (Model#4625-Q Thermo Scientific; Waltham, Mass.). Then, 10 μL per well Histone Extraction buffer (catalog # AL009F2; Perkin Elmer; Waltham, Mass.) was added and the plate further incubated at RT for 20 min on plate shaker with low speed. To each well was then added 10 μL per well of a 5× mix of anti-K27me3 acceptor beads plus Biotinylated anti-Histone H3 (C-ter) Antibody (diluted to 3 nM final) (Catalog #AL118 Perkin Elmer; Waltham, Mass.). Dilution of the acceptor beads and then anti-Histone H3 was with 1× Histone Detection buffer (Catalog # AL009F3 Perkin Elmer; Waltham, Mass.) which was produced diluted from the 10× stock provided. The plate was sealed with an aluminum plate sealer and incubated at 23° C. for 60 min. We then added 10 μL 5× solution of Streptavidin Donor beads (Catalog #6760002 Perkin Elmer; Waltham, Mass.) (20 μg/mL final in 1× Histone Detection Buffer), sealed the plate with Aluminum plate sealer and incubated at 23° C. for 30 min. The plates were then read using an EnVision-Alpha Reader (model #2104 Perkin Elmer; Waltham, Mass.).
Data from both assays was analyzed using Assay Assistant (Constellation Pharmaceuticals In-house product) and Activity Base (IDBS Ltd, Surrey, UK) template. Data files were imported to Assay Assistant and assay conditions were specified. A unique Analysis ID was created and the data files exported to Activity Base. An analysis template was created on Activity Base to measure dose-dependent inhibition of H3K27me3 mark and cell viability respectively. Readout of DMSO wells were used to normalize the data. Resulting curves were fitted using Activity base software Model 205 (IDBS Ltd, Surrey, UK). The data was checked for quality, validated and integrated in excel format using SARview (IDBS Ltd, Surrey, UK).

[1] = EZH2 pep BSA Brij 4.0 LowE (IC50), 20 pM PRC2 wt EZH2, 0.9 μM 3H-SAM, biotinylated H3 peptide substrate, 2 μM H3K27me3 activating peptide
[2] = 20 pM PRC2 wt EZH2, 0.9 μM 3H-SAM, biotinylated H3 peptide substrate, 2 μM H3K27me3 activating peptide; read-out: EZH2 pep BSA Brij 4.0 LowE (IC50)
[3] = read-out: EZH2 pep BSA Brij 4.0 LowE (IC50); 20 pM PRC2 wt EZH2, 0.9 μM 3H-SAM, biotinylated H3 peptide substrate, 2 μM H3K27me3 activating peptide

T1 sequence (Q15910 whole entry): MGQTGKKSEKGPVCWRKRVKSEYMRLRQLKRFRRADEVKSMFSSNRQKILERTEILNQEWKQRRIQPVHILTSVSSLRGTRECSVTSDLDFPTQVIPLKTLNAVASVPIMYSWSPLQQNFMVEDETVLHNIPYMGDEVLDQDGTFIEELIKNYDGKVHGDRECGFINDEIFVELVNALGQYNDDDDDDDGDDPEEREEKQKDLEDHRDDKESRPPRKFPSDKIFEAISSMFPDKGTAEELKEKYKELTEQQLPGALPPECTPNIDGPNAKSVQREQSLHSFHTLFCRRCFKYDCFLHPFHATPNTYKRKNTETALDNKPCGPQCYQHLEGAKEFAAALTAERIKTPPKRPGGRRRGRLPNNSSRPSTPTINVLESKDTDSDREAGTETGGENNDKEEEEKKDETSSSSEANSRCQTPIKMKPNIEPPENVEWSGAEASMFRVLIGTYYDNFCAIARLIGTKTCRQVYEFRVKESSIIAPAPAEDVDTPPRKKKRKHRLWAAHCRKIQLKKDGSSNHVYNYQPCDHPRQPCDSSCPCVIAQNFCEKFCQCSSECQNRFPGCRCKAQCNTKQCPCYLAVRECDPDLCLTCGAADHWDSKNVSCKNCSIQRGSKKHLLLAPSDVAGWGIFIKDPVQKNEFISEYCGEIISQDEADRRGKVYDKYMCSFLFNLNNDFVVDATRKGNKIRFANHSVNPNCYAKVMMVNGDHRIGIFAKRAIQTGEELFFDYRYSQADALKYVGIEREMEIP
T1 sequence (O75530 whole entry partner): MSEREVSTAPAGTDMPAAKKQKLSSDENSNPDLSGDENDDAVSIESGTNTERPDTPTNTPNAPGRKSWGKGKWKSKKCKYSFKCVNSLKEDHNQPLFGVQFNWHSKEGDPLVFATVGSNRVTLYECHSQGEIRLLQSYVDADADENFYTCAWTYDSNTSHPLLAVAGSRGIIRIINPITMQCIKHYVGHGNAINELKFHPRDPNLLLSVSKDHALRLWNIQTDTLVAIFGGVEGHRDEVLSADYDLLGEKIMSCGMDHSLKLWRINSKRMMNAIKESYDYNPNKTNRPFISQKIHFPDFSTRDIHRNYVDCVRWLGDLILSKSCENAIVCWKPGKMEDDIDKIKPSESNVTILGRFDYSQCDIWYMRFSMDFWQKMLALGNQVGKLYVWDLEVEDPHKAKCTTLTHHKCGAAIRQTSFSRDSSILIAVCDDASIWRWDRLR
T1 sequence (Q15022 whole entry partner): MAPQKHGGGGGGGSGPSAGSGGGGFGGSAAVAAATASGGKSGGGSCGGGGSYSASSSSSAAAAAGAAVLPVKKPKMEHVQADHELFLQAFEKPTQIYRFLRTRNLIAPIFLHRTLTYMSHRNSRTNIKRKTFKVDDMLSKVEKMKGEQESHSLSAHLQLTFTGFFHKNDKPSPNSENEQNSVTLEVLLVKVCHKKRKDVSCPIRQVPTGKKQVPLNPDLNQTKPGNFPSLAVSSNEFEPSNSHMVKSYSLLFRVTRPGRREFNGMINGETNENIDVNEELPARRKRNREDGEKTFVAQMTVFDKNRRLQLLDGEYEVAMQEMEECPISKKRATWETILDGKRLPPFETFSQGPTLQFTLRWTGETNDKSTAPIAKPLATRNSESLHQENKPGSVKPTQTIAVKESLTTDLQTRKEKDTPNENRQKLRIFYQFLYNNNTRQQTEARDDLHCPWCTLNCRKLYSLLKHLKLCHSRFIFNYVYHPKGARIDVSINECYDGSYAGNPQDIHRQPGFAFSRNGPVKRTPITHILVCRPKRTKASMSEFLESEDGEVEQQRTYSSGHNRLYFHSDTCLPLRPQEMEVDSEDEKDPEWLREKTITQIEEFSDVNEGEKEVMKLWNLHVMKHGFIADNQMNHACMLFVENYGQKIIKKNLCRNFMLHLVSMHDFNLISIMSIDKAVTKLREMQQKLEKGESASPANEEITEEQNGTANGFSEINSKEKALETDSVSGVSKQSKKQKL
T1 sequence (Q09028 whole entry partner): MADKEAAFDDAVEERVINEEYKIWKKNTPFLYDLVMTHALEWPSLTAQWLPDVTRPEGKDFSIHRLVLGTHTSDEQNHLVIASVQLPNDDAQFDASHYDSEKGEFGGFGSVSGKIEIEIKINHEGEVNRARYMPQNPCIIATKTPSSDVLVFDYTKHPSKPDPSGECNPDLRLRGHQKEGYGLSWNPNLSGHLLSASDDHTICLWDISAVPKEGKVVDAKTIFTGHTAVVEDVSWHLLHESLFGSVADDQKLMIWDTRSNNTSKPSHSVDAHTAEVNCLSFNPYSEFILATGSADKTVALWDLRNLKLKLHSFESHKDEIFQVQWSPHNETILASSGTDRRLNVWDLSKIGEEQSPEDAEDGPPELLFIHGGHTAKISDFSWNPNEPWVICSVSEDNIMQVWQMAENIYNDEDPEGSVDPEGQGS
T1 sequence (Q6ZN18 whole entry partner): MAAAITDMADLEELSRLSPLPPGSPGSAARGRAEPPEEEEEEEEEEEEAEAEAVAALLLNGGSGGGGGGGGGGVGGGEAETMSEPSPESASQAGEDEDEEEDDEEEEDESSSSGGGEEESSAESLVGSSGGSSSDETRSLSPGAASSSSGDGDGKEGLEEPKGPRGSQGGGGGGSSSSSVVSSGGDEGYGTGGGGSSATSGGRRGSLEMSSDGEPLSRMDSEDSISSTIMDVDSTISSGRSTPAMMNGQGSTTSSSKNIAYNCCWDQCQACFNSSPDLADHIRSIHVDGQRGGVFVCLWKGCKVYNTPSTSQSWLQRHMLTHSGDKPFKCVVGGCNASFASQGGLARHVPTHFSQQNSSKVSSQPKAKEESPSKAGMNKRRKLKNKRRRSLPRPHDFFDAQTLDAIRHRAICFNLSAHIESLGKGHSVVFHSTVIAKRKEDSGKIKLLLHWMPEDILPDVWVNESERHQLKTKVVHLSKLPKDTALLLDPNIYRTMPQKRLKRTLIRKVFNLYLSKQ

Structure (SMILES)	IC50 (PRC2 containing wt EZH2; [1]) [nM]	EC50 (H3K27me3 mark; Homo sapiens, HeLa, 72 h) [nM]	EC50 (H3K27me3 mark; 72 hrs) [nM]	IC50 (PRC2 containing wt EZH2; [2]) [nM]	IC50 (PRC2 containing wt EZH2; [3]) [nM]
COc1cc(C)[nH]c(=O)c1CNC(=O)c1c(C)n(C(C)C2CCN(C)CC2C(F)(F)F)c2ccccc12 (single isomer, unassigned) [Compound 27, N-((4-methoxy-6-methyl-2-oxo-1,2-dihydropyridin-3-yl)methyl)-2-methyl-1-(1-(1-methyl-3-(trifluoromethyl)piperidin-4-yl)ethyl)-1H-indole-3-carboxamide]	100 to 1000	> 2000			
COc1cc(C)[nH]c(=O)c1CNC(=O)c1c(C)n(C(C)C2CCN(C)CC2C(F)(F)F)c2ccccc12 (single isomer, unassigned) [Compound 28, N-((4-methoxy-6-methyl-2-oxo-1,2-dihydropyridin-3-yl)methyl)-2-methyl-1-(1-(1-methyl-3-(trifluoromethyl)piperidin-4-yl)ethyl)-1H-indole-3-carboxamide]	< 100		> 2000		
COc1cc(C)[nH]c(=O)c1CNC(=O)c1c(C)n(C(C)C2CCN(C)C(c3ccc(F)cc3)C2)c2ccccc12 (single isomer, unassigned) [Compound 34, 1-(1-(2-(4-fluorophenyl)-1-methylpiperidin-4-yl)ethyl)-N-((4-methoxy-6-methyl-2-oxo-1,2-dihydropyridin-3-yl)methyl)-2-methyl-1H-indole-3-carboxamide]			> 2000	100 to 1000	
COc1cc(C)[nH]c(=O)c1CNC(=O)c1c(C)n(C(C)C2CCN(C)C(c3ccc(F)cc3)C2)c2ccccc12 (single isomer, unassigned) [Compound 35, 1-(1-(2-(4-fluorophenyl)-1-methylpiperidin-4-yl)ethyl)-N-((4-methoxy-6-methyl-2-oxo-1,2-dihydropyridin-3-yl)methyl)-2-methyl-1H-indole-3-carboxamide]			< 400	< 100	
CCc1cc(C)[nH]c(=O)c1CNC(=O)c1c(C)n(C(C)C2CCNC(C(F)(F)F)C2)c2ccccc12 (stereo not shown) [Compound 5, N-((4-ethyl-6-methyl-2-oxo-1,2-dihydropyridin-3-yl)methyl)-2-methyl-1-(1-(2-(trifluoromethyl)piperidin-4-yl)ethyl)-1H-indole-3-carboxamide]	< 100	< 400			
CCCc1cc(C)[nH]c(=O)c1CNC(=O)c1c(C)n(C(C)C2CCNC(C(F)(F)F)C2)c2ccccc12 (stereo not shown) [Compound 6, 2-methyl-N-((6-methyl-2-oxo-4-propyl-1,2-dihydropyridin-3-yl)methyl)-1-(1-(2-(trifluoromethyl)piperidin-4-yl)ethyl)-1H-indole-3-carboxamide]	< 100	< 400			
Cc1cc(OC(F)F)c(CNC(=O)c2c(C)n(C(C)C3CCNC(C(F)(F)F)C3)c3ccccc23)c(=O)[nH]1 (stereo not shown) [Compound 7, N-((4-(difluoromethoxy)-6-methyl-2-oxo-1,2-dihydropyridin-3-yl)methyl)-2-methyl-1-(1-(2-(trifluoromethyl)piperidin-4-yl)ethyl)-1H-indole-3-carboxamide]	< 100	< 400			
COc1cc(C)[nH]c(=O)c1CNC(=O)c1c(C)n(C(C)C2CCN(C)C(CF)C2)c2ccccc12 (stereo not shown) [Compound 29, 1-(1-(2-(fluoromethyl)-1-methylpiperidin-4-yl)ethyl)-N-((4-methoxy-6-methyl-2-oxo-1,2-dihydropyridin-3-yl)methyl)-2-methyl-1H-indole-3-carboxamide]	< 100	> 2000			
COc1cc(C)[nH]c(=O)c1CNC(=O)c1c(C)n(C(C)C2CCN(C)C(CO)C2)c2ccccc12 (stereo not shown) [Compound 30, 1-(1-(2-(hydroxymethyl)-1-methylpiperidin-4-yl)ethyl)-N-((4-methoxy-6-methyl-2-oxo-1,2-dihydropyridin-3-yl)methyl)-2-methyl-1H-indole-3-carboxamide]	< 100	> 2000			
COc1cc(C)[nH]c(=O)c1CNC(=O)c1c(C)n(C(C)C2CCN(CC(F)F)C(C)C2)c2ccccc12 (stereo not shown) [Compound 44]	< 100		> 2000		
COc1cc(C)[nH]c(=O)c1CNC(=O)c1c(C)n(C(C)C2CCN(CC(F)(F)F)C(C)C2)c2ccccc12 (stereo not shown) [Compound 45]	< 100		< 400		
COc1cc(C)[nH]c(=O)c1CNC(=O)c1c(C)n(C(C)C2CCN(CC(F)F)C(C)C2)c2ccccc12 (stereo not shown) [Compound 46]			< 400		< 100
COc1cc(C)[nH]c(=O)c1CNC(=O)c1c(C)n(C(C)C2CCN(CC(F)(F)F)C(C)C2)c2ccccc12 (stereo not shown) [Compound 47]	100 to 1000		> 2000		
COc1cc(C)[nH]c(=O)c1CNC(=O)c1c(C)n(C(C)C2CCNC(c3ccccc3F)C2)c2ccccc12 (stereo not shown) [Compound 66]		400 to 2000			< 100
CCC1CC(C(C)n2c(C)c(C(=O)NCc3c(C)cc(C)[nH]c3=O)c3ccccc32)CCN1CC(F)F (stereo not shown) [Compound 68]			> 2000		< 100
CCC1CC(C(C)n2c(C)c(C(=O)NCc3c(C)cc(C)[nH]c3=O)c3ccccc32)CCN1CC(F)F (stereo not shown) [Compound 69]			> 2000		< 100
COc1cc(C)[nH]c(=O)c1CNC(=O)c1c(C)n(C(C)C2CCN(CC(C)(F)F)C(C)C2)c2ccccc12 (stereo not shown) [Compound 70]	< 100		400 to 2000		
CCC1CC(C(C)n2c(C)c(C(=O)NCc3c(C)cc(C)[nH]c3=O)c3ccccc32)CCN1CC(F)F (stereo not shown) [Compound 71]			< 400		< 100
COc1cc(C)[nH]c(=O)c1CNC(=O)c1c(C)n(C(C)C2CCN(CC(C)(F)F)C(C)C2)c2ccccc12 (stereo not shown) [Compound 72]	100 to 1000		> 2000		
COc1cc(C)[nH]c(=O)c1CNC(=O)c1c(C)n(C(C)C2CCN(CC(C)(F)F)C(C)C2)c2ccccc12 (stereo not shown) [Compound 73]	< 100		< 400		
Cc1cc(C)c(CNC(=O)c2c(C)n(C(C)C3CCNC(CC(F)(F)F)C3)c3ccccc23)c(=O)[nH]1 (stereo not shown) [Compound 84]		400 to 2000			< 100
COc1cc(C)[nH]c(=O)c1CNC(=O)c1c(C)n(C(C)C2CCNC(CC(F)(F)F)C2)c2ccccc12 (stereo not shown) [Compound 88]	< 100		> 2000		
COc1cc(C)[nH]c(=O)c1CNC(=O)c1c(C)n(C(C)C2CCNC(CC(F)(F)F)C2)c2ccccc12 (stereo not shown) [Compound 89]	< 100		400 to 2000		
COc1cc(C)[nH]c(=O)c1CNC(=O)c1c(C)n(C(C)C2CCNC(CC(F)(F)F)C2)c2ccccc12 (stereo not shown) [Compound 90]	< 100		400 to 2000		
CCS(=O)(=O)N1CCC(C(C)n2c(C)c(C(=O)NCc3c(OC)cc(C)[nH]c3=O)c3ccccc32)CC1C (stereo not shown) [Compound 91]	< 100	> 2000			
COc1cc(C)[nH]c(=O)c1CNC(=O)c1c(C)n(C(C)C2CCN(C)C(c3cccc(C(=O)O)c3)C2)c2ccccc12 (stereo not shown) [Compound 92]			400 to 2000		< 100
